Assay results reported in patent publication US20260042764A1, “COMPOSITIONS AND METHODS FOR INHIBITION OF KRAS” (TheRas, Inc., priority 2022, published 2026).

Columns and labels:
[1] = target: T1, Avi-KRAS G12D (1-169) GppNHp/RAF1 RBD-3xFLAG (52-151) (Homo sapiens, UniProt P01116, G12D); test: Raf1-KRAS G12D-GppNHP disruption HTRF assay (Biological Example 1); format: binding
T1 construct: Avi-KRAS G12D (1-169)
In short: (§1)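 First, protein mix in Tris pH 7.5 buffer with NaCl, MgCl2, BSA, Tween and 10% DMSO is incubated 1 h at room temperature. Next, reagent mix is added and incubated a further 1 h at room temperature. Finally, HTRF is read and activity normalized to DMSO.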

[2] = target: T2, Avi-KRAS G12R (1-169) GppNHp/RAF1 RBD-3xFLAG (52-151) (Homo sapiens, UniProt P01116, G12R); test: Raf1-KRAS G12R-GppNHP disruption HTRF assay (Biological Example 1); format: binding
T2 construct: Avi-KRAS G12R (1-169)
T2 sequence (P01116 1-169 isoform P01116-2 G12R): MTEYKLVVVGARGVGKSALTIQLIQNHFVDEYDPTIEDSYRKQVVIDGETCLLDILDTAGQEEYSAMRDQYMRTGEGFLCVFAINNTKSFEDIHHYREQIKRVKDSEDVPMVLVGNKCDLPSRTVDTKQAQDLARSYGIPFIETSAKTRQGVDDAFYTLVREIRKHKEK
In short: as §1

[3] = target: T3, Avi-KRAS G12V (1-169) GppNHp/RAF1 RBD-3xFLAG (52-151) (Homo sapiens, UniProt P01116, G12V); test: Raf1-KRAS G12V-GppNHP disruption HTRF assay (Biological Example 1); format: binding
T3 construct: Avi-KRAS G12V (1-169)
T3 sequence (P01116 1-169 isoform P01116-2 G12V): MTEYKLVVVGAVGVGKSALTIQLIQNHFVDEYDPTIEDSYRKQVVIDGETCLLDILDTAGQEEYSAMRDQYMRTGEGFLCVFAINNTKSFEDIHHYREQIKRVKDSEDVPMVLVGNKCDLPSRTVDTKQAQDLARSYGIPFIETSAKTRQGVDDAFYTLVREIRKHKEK
In short: as §1

[4] = target: T4, Avi-KRAS WT (1-169) GppNHp/RAF1 RBD-3xFLAG (52-151) (Homo sapiens, UniProt P01116); test: Raf1-KRAS WT-GppNHP disruption HTRF assay (Biological Example 1); format: binding
T4 construct: Avi-KRAS WT (1-169)
T4 sequence (P01116 1-169 isoform P01116-2): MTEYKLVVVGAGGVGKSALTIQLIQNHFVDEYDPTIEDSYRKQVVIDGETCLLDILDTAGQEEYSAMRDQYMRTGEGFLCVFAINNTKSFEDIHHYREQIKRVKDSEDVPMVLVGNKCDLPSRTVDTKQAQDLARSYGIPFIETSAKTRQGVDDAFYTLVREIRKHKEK
In short: as §1

GP2d cells (KRAS G12D) = test: Cell-based pERK HTRF assay in GP2d cell (Biological Example 2); settings: GP2d, GP2d (KRAS G12D) cells, pERK HTRF
In short: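 HTRF read-out of pERK (excitation 320 nm, emission 615 nm) after lysates sat 4–24 h at room temperature with Eu cryptate and d2 antibodies.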

SW620 cells (KRAS G12V) = test: Cell-based pERK HTRF assay in SW620 cell (Biological Example 4); settings: Homo sapiens, SW-620, SW620 (KRAS G12V) cells, pERK HTRF
In short: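 This assay measures inhibition of ERK phosphorylation downstream of KRAS G12V in intact SW620 cells. Compounds are applied for 4 h over nine half-log concentrations starting at 1 μM, and pERK is quantified by HTRF.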

[5] = KRAS G12D, GppNHp-loaded, class symbols
[6] = KRAS G12R, GppNHp-loaded, class symbols
[7] = KRAS G12V, GppNHp-loaded, class symbols
[8] = KRAS WT, GppNHp-loaded, class symbols
[9] = KRAS G12D, GppNHp-loaded, Table 11
[10] = KRAS G12R, GppNHp-loaded, Table 11
[11] = KRAS G12V, GppNHp-loaded, Table 11
[12] = KRAS WT, GppNHp-loaded, Table 11

T1 sequence (P01116 1-169 isoform P01116-2 G12D): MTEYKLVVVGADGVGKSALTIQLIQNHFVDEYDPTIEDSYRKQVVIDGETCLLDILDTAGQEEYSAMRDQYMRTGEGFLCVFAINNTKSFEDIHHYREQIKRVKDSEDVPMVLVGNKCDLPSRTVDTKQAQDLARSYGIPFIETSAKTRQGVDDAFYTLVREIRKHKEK

Row | SMILES | IC50 ([1]; KRAS G12D-GppNHp/RAF1 RBD HTRF) [nM] | IC50 ([2]; KRAS G12R-GppNHp/RAF1 RBD HTRF) [nM] | IC50 ([3]; KRAS G12V-GppNHp/RAF1 RBD HTRF) [nM] | IC50 ([4]; KRAS WT-GppNHp/RAF1 RBD HTRF) [nM] | IC50 (GP2d cells (KRAS G12D)) [nM] | IC50 (SW620 cells (KRAS G12V)) [nM] | IC50 [1, 5] [nM] | IC50 [2, 6] [nM] | IC50 [3, 7] [nM] | IC50 [4, 8] [nM] | IC50 (GP2d cells (KRAS G12D); class symbols) [nM] | IC50 (SW620 cells (KRAS G12V); class symbols) [nM] | IC50 [1, 9] [nM] | IC50 [2, 10] [nM] | IC50 [3, 11] [nM] | IC50 [4, 12] [nM]
1 | N#Cc1c(N)sc2c(F)ccc(-c3c(C(F)(F)F)cc4c(N5CC6CCC(C5)N6C(=O)C5CC5)nc(OC[C@@]56CCCN5C[C@H](F)C6)nc4c3F)c12 [Compound 439] | 100 to 1000 | 1000 to 10000 | 1000 to 10000 | 1000 to 10000 | < 100 | < 100 |  |  |  |  |  |  |  |  |  | 
2 | CCN(c1nc(OC[C@@]23CCCN2C[C@H](F)C3)nc2c(F)c(-c3ccc(F)c4sc(N)c(C#N)c34)c(C(F)(F)F)cc12)[C@H]1CCN(C(=O)c2ccnn2C)C1 (atropisomer, axis not shown) [Compound 723] |  |  |  |  |  |  | < 100 | < 100 | < 100 | < 100 | < 100 | < 100 |  |  |  | 
3 | C[C@@H]1[C@H](N(C)c2nc(OC[C@@]34CCCN3C[C@H](F)C4)nc3c(F)c(-c4ccc(F)c5sc(N)c(C#N)c45)c(Cl)cc23)CCN1C(=O)C(F)F [Compound 408] | 100 to 1000 | 1000 to 10000 | 1000 to 10000 | 100 to 1000 | < 100 | 100 to 1000 |  |  |  |  |  |  |  |  |  | 
4 | N#Cc1c(N)sc2c(F)ccc(-c3c(C(F)(F)F)cc4c(N5C6COCC5C6)nc(OC[C@@]56CCCN5C[C@H](F)C6)nc4c3F)c12 [Compound 202] |  |  |  |  | < 100 | < 100 |  |  |  |  |  |  | 100 to 1000 | 100 to 1000 | 100 to 1000 | 100 to 1000
5 | N#Cc1c(N)sc2c(F)ccc(-c3c(C(F)(F)F)cc4c(N5CC6COC(C6)C5)nc(OC[C@@]56CCCN5C[C@H](F)C6)nc4c3F)c12 (stereo partly drawn) [Compound 292] | 100 to 1000 | 100 to 1000 | 1000 to 10000 | 100 to 1000 | < 100 | < 100 |  |  |  |  |  |  |  |  |  | 
6 | [2H]C1([2H])CN2C[C@H](F)C[C@]2(COc2nc(N(C)[C@@H]3CCN(C(=O)C4CC4)[C@@H]3C)c3cc(C(F)(F)F)c(-c4ccc(F)c5sc(N)c(C#N)c45)c(F)c3n2)C1 [Compound 522] | 100 to 1000 | < 100 | 100 to 1000 | < 100 | < 100 | < 100 |  |  |  |  |  |  |  |  |  | 
7 | CN(c1nc(OC[C@@]23CCCN2C[C@H](F)C3)nc2c(F)c(-c3ccc(F)c4sc(N)c(C#N)c34)c(C(F)(F)F)cc12)[C@@H]1CCCOC1 [Compound 274] |  |  |  |  | < 100 | < 100 |  |  |  |  |  |  | 100 to 1000 | 100 to 1000 | 100 to 1000 | 100 to 1000
8 | CCN(c1nc(OC[C@@]23CCCN2C[C@H](F)C3)nc2c(F)c(-c3ccc(F)c4sc(N)c(C#N)c34)c(C(F)(F)F)cc12)[C@H]1C[C@H](C)N(C(=O)C(C)C)C1 [Compound 471] | 100 to 1000 | 100 to 1000 | 100 to 1000 | 100 to 1000 | < 100 | < 100 |  |  |  |  |  |  |  |  |  | 
9 | CC#CC(=O)N1CC[C@@H](N(C)c2nc(OC[C@@]34CCCN3C[C@H](F)C4)nc3c(F)c(-c4ccc(F)c5sc(N)c(C#N)c45)c(C(F)(F)F)cc23)[C@H]1C [Compound 668] |  |  |  |  |  |  | 100 to 1000 | 100 to 1000 | 100 to 1000 | 100 to 1000 | < 100 | < 100 |  |  |  | 
10 | C[C@@H](c1cccnc1N)N(C)c1nc(OC[C@@]23CCCN2C[C@H](F)C3)nc2c(F)c(-c3ccc(F)c4sc(N)c(C#N)c34)c(C(F)(F)F)cc12 (atropisomer, axis not shown) [Compound 601] |  |  |  |  |  |  | 100 to 1000 | 100 to 1000 | 100 to 1000 | 100 to 1000 | < 100 | < 100 |  |  |  | 
11 | CC(=O)N1CC[C@H](N(C)c2nc(OC[C@@H]3CC4(CC4)CN3C)nc3c(F)c(-c4ccc(F)c5sc(N)c(C#N)c45)c(C(F)(F)F)cc23)[C@@H]1C [Compound 227] |  |  |  |  | 100 to 1000 | 100 to 1000 |  |  |  |  |  |  | 1000 to 10000 | > 10000 | > 10000 | > 10000
12 | C[C@@H]1[C@H](N(C)c2nc(OC[C@@]34CCCN3C[C@H](F)C4)nc3c(F)c(-c4ccc(F)c5sc(N)c(C#N)c45)c(Cl)cc23)CCN1C(=O)C1CC1 [Compound 401] | 100 to 1000 | 100 to 1000 | 100 to 1000 | 100 to 1000 | < 100 | < 100 |  |  |  |  |  |  |  |  |  | 

The next lines start with the values.

Row | IC50 ([1]; KRAS G12D-GppNHp/RAF1 RBD HTRF) [nM] | IC50 ([2]; KRAS G12R-GppNHp/RAF1 RBD HTRF) [nM] | IC50 ([3]; KRAS G12V-GppNHp/RAF1 RBD HTRF) [nM] | IC50 ([4]; KRAS WT-GppNHp/RAF1 RBD HTRF) [nM] | IC50 (GP2d cells (KRAS G12D)) [nM] | IC50 (SW620 cells (KRAS G12V)) [nM] | IC50 [1, 5] [nM] | IC50 [2, 6] [nM] | IC50 [3, 7] [nM] | IC50 [4, 8] [nM] | IC50 (GP2d cells (KRAS G12D); class symbols) [nM] | IC50 (SW620 cells (KRAS G12V); class symbols) [nM] | IC50 [1, 9] [nM] | IC50 [2, 10] [nM] | IC50 [3, 11] [nM] | IC50 [4, 12] [nM] | SMILES
13 |  |  |  |  |  |  | < 100 | < 100 | < 100 | < 100 | < 100 | < 100 |  |  |  |  | CCN(c1nc(OC[C@@]23CCCN2C[C@H](F)C3)nc2c(F)c(-c3ccc(F)c4sc(N)c(C#N)c34)c(C(F)(F)F)cc12)[C@H]1CC(=O)N(CCOC)C1 (atropisomer, axis not shown) [Compound 815]
14 | 100 to 1000 | 100 to 1000 | 100 to 1000 | 100 to 1000 | < 100 | < 100 |  |  |  |  |  |  |  |  |  |  | CN(c1nc(OC[C@@]23CCCN2C[C@H](F)C3)nc2c(F)c(-c3ccc(F)c4sc(N)c(C#N)c34)c(C(F)(F)F)cc12)[C@@H]1C[C@H]2COC(=O)N2C1 [Compound 476]
15 | 100 to 1000 | 100 to 1000 | 1000 to 10000 | 100 to 1000 | < 100 | < 100 |  |  |  |  |  |  |  |  |  |  | CCN(c1nc(OC[C@@]23CCCN2C[C@H](F)C3)nc2c(F)c(-c3ccc(F)c4sc(N)c(C#N)c34)c(C(F)(F)F)cc12)[C@@H]1CCN(C(=O)C2CC2)[C@H]1C [Compound 415]
16 |  |  |  |  |  |  | 100 to 1000 | 100 to 1000 | 100 to 1000 | 100 to 1000 | < 100 | < 100 |  |  |  |  | C/C=C\C(=O)N1CC[C@@H](N(C)c2nc(OC[C@@]34CCCN3C[C@H](F)C4)nc3c(F)c(-c4ccc(F)c5sc(N)c(C#N)c45)c(C(F)(F)F)cc23)[C@H]1C [Compound 672]
17 |  |  |  |  |  |  | < 100 | < 100 | 100 to 1000 | 100 to 1000 | < 100 | < 100 |  |  |  |  | CCN(c1nc(OC[C@@]23CCCN2C[C@H](F)C3)nc2c(F)c(-c3ccc(F)c4sc(N)c(C#N)c34)c(C(F)(F)F)cc12)[C@H]1CCN(C(=O)OC)[C@@H]1C (atropisomer, axis not shown) [Compound 688]
18 |  |  |  |  |  |  | < 100 | < 100 | < 100 | < 100 | < 100 | < 100 |  |  |  |  | CCN(c1nc(OC[C@@]23CCCN2C[C@H](F)C3)nc2c(F)c(-c3ccc(F)c4sc(N)c(C#N)c34)c(C(F)(F)F)cc12)[C@H]1CCN(C(=O)[C@@H](C)OC)C1 (atropisomer, axis not shown) [Compound 570]
